Data as given in the NIST ThermoML archive (doi:10.1021/je300252d).

Experiment: mn = molality of the nth substance listed, in mol/kg
Settings: 100 kPa, Liquid, Direct current cell with electrodes

CCCC[N+](CCCC)(CCCC)CCCC.[Br-] [tetrabutylammonium bromide] + CN(C)C=O
Settings | molar conductivity [S·m2/mol]
283.15 K, m1 = 9.197e-05 | 0.006236
283.15 K, m1 = 0.0002922 | 0.006141
283.15 K, m1 = 0.0004908 | 0.006078
283.15 K, m1 = 0.0006894 | 0.0060258
283.15 K, m1 = 0.001222 | 0.0059158
283.15 K, m1 = 0.00199 | 0.0057906
283.15 K, m1 = 0.002938 | 0.0056698
283.15 K, m1 = 0.003964 | 0.0055611
283.15 K, m1 = 0.005897 | 0.005399
283.15 K, m1 = 0.007916 | 0.0052571
283.15 K, m1 = 0.009885 | 0.0051385
283.15 K, m1 = 0.01187 | 0.0050378
288.15 K, m1 = 0.0002384 | 0.006641
288.15 K, m1 = 0.0003637 | 0.006588
288.15 K, m1 = 0.0005543 | 0.0065255
288.15 K, m1 = 0.0007699 | 0.0064657
288.15 K, m1 = 0.001232 | 0.0063637
288.15 K, m1 = 0.00201 | 0.0062266
288.15 K, m1 = 0.002974 | 0.0060937
288.15 K, m1 = 0.003946 | 0.005981
288.15 K, m1 = 0.005906 | 0.0058005
288.15 K, m1 = 0.007894 | 0.0056496
288.15 K, m1 = 0.009876 | 0.0055214
288.15 K, m1 = 0.01183 | 0.0054109
293.15 K, m1 = 0.000124 | 0.007196
293.15 K, m1 = 0.000358 | 0.007067
293.15 K, m1 = 0.0005617 | 0.006993
293.15 K, m1 = 0.0007496 | 0.0069356
293.15 K, m1 = 0.001203 | 0.006825
293.15 K, m1 = 0.001974 | 0.0066764
293.15 K, m1 = 0.002962 | 0.006528
293.15 K, m1 = 0.003941 | 0.0064046
293.15 K, m1 = 0.005913 | 0.0062071
293.15 K, m1 = 0.007899 | 0.0060446
293.15 K, m1 = 0.009903 | 0.0059059
293.15 K, m1 = 0.01185 | 0.0057855
298.15 K, m1 = 8.12e-05 | 0.00773
298.15 K, m1 = 0.0003247 | 0.007565
298.15 K, m1 = 0.0005335 | 0.007478
298.15 K, m1 = 0.000754 | 0.0074043
298.15 K, m1 = 0.001188 | 0.0072894
298.15 K, m1 = 0.001985 | 0.0071236
298.15 K, m1 = 0.002972 | 0.0069641
298.15 K, m1 = 0.003989 | 0.0068266
298.15 K, m1 = 0.005892 | 0.0066212
298.15 K, m1 = 0.007909 | 0.0064436
298.15 K, m1 = 0.009849 | 0.0062996
298.15 K, m1 = 0.0119 | 0.0061631
303.15 K, m1 = 0.0001279 | 0.008182
303.15 K, m1 = 0.0003737 | 0.008028
303.15 K, m1 = 0.0004937 | 0.007975
303.15 K, m1 = 0.0007203 | 0.0078909
303.15 K, m1 = 0.00121 | 0.0077502
303.15 K, m1 = 0.002013 | 0.0075724
303.15 K, m1 = 0.002974 | 0.0074063
303.15 K, m1 = 0.003957 | 0.0072634
303.15 K, m1 = 0.005917 | 0.0070358
303.15 K, m1 = 0.00787 | 0.0068512
303.15 K, m1 = 0.009823 | 0.0066956
303.15 K, m1 = 0.01184 | 0.0065521
308.15 K, m1 = 0.0001375 | 0.008672
308.15 K, m1 = 0.0003374 | 0.008537
308.15 K, m1 = 0.0005902 | 0.008422
308.15 K, m1 = 0.0007253 | 0.0083707
308.15 K, m1 = 0.001221 | 0.0082189
308.15 K, m1 = 0.002004 | 0.0080331
308.15 K, m1 = 0.002993 | 0.0078504
308.15 K, m1 = 0.003956 | 0.0077012
308.15 K, m1 = 0.005922 | 0.0074573
308.15 K, m1 = 0.007903 | 0.0072572
308.15 K, m1 = 0.009896 | 0.007088
308.15 K, m1 = 0.01189 | 0.0069381
313.15 K, m1 = 6.835e-05 | 0.009246
313.15 K, m1 = 0.0003232 | 0.009042
313.15 K, m1 = 0.0005979 | 0.008909
313.15 K, m1 = 0.0007057 | 0.0088651
313.15 K, m1 = 0.001228 | 0.0086936
313.15 K, m1 = 0.002045 | 0.0084879
313.15 K, m1 = 0.002992 | 0.0083023
313.15 K, m1 = 0.003971 | 0.0081415
313.15 K, m1 = 0.00585 | 0.0078927
313.15 K, m1 = 0.00787 | 0.0076738
313.15 K, m1 = 0.009873 | 0.0074917
313.15 K, m1 = 0.01189 | 0.007332
318.15 K, m1 = 9.782e-05 | 0.009714
318.15 K, m1 = 0.0003254 | 0.009541
318.15 K, m1 = 0.0005324 | 0.009434
318.15 K, m1 = 0.0007651 | 0.0093342
318.15 K, m1 = 0.001206 | 0.0091821
318.15 K, m1 = 0.001977 | 0.0089725
318.15 K, m1 = 0.002989 | 0.0087596
318.15 K, m1 = 0.003967 | 0.0085894
318.15 K, m1 = 0.005938 | 0.0083142
318.15 K, m1 = 0.007894 | 0.0080896
318.15 K, m1 = 0.009905 | 0.0078947
318.15 K, m1 = 0.01189 | 0.0077299

[Na+].c1ccc([B-](c2ccccc2)(c2ccccc2)c2ccccc2)cc1 [sodium tetraphenylboron] + CN(C)C=O
Settings | molar conductivity [S·m2/mol]
283.15 K, m1 = 0.0001121 | 0.004311
283.15 K, m1 = 0.0003006 | 0.004246
283.15 K, m1 = 0.0005305 | 0.004194
283.15 K, m1 = 0.0007538 | 0.0041545
283.15 K, m1 = 0.001184 | 0.0040963
283.15 K, m1 = 0.001959 | 0.0040172
283.15 K, m1 = 0.002964 | 0.0039424
283.15 K, m1 = 0.004014 | 0.0038787
283.15 K, m1 = 0.005905 | 0.0037902
283.15 K, m1 = 0.007908 | 0.0037146
283.15 K, m1 = 0.009953 | 0.0036529
283.15 K, m1 = 0.01189 | 0.003601
288.15 K, m1 = 8.405e-05 | 0.004653
288.15 K, m1 = 0.0003375 | 0.00456
288.15 K, m1 = 0.0005532 | 0.0045097
288.15 K, m1 = 0.0008262 | 0.0044598
288.15 K, m1 = 0.001174 | 0.0044103
288.15 K, m1 = 0.001935 | 0.0043259
288.15 K, m1 = 0.003089 | 0.004235
288.15 K, m1 = 0.003947 | 0.00418
288.15 K, m1 = 0.005926 | 0.0040813
288.15 K, m1 = 0.007888 | 0.004001
288.15 K, m1 = 0.009893 | 0.0039356
288.15 K, m1 = 0.01186 | 0.0038782
293.15 K, m1 = 8.854e-05 | 0.00499
293.15 K, m1 = 0.0003068 | 0.004902
293.15 K, m1 = 0.0005164 | 0.0048481
293.15 K, m1 = 0.0007512 | 0.0047996
293.15 K, m1 = 0.001224 | 0.004726
293.15 K, m1 = 0.001989 | 0.004637
293.15 K, m1 = 0.003077 | 0.0045457
293.15 K, m1 = 0.004001 | 0.004483
293.15 K, m1 = 0.005908 | 0.0043822
293.15 K, m1 = 0.007927 | 0.004295
293.15 K, m1 = 0.009859 | 0.004226
293.15 K, m1 = 0.0119 | 0.004162
298.15 K, m1 = 0.000116 | 0.005325
298.15 K, m1 = 0.0003157 | 0.005244
298.15 K, m1 = 0.0005504 | 0.0051809
298.15 K, m1 = 0.0007618 | 0.0051351
298.15 K, m1 = 0.001217 | 0.0050592
298.15 K, m1 = 0.002007 | 0.0049609
298.15 K, m1 = 0.002964 | 0.0048739
298.15 K, m1 = 0.003939 | 0.004802
298.15 K, m1 = 0.005917 | 0.0046899
298.15 K, m1 = 0.00789 | 0.004599
298.15 K, m1 = 0.009808 | 0.0045256
298.15 K, m1 = 0.01189 | 0.0044558
303.15 K, m1 = 0.0001023 | 0.005694
303.15 K, m1 = 0.0003262 | 0.005596
303.15 K, m1 = 0.0005565 | 0.00553
303.15 K, m1 = 0.0007645 | 0.0054821
303.15 K, m1 = 0.001229 | 0.0053997
303.15 K, m1 = 0.002017 | 0.0052952
303.15 K, m1 = 0.003018 | 0.0051984
303.15 K, m1 = 0.004001 | 0.0051217
303.15 K, m1 = 0.005892 | 0.0050075
303.15 K, m1 = 0.007841 | 0.0049118
303.15 K, m1 = 0.009874 | 0.0048292
303.15 K, m1 = 0.01188 | 0.0047579
308.15 K, m1 = 0.000135 | 0.006046
308.15 K, m1 = 0.0003264 | 0.005961
308.15 K, m1 = 0.0005229 | 0.0058999
308.15 K, m1 = 0.0007539 | 0.0058422
308.15 K, m1 = 0.00122 | 0.0057534
308.15 K, m1 = 0.002002 | 0.0056421
308.15 K, m1 = 0.002969 | 0.005541
308.15 K, m1 = 0.00395 | 0.0054581
308.15 K, m1 = 0.005926 | 0.00533
308.15 K, m1 = 0.007923 | 0.0052265
308.15 K, m1 = 0.009885 | 0.005143
308.15 K, m1 = 0.01187 | 0.0050687
313.15 K, m1 = 8.854e-05 | 0.00646
313.15 K, m1 = 0.0002531 | 0.006367
313.15 K, m1 = 0.0004344 | 0.006299
313.15 K, m1 = 0.00071 | 0.0062208
313.15 K, m1 = 0.001219 | 0.006116
313.15 K, m1 = 0.002012 | 0.0059959
313.15 K, m1 = 0.003006 | 0.0058852
313.15 K, m1 = 0.00399 | 0.0057965
313.15 K, m1 = 0.005907 | 0.0056636
313.15 K, m1 = 0.007913 | 0.0055535
313.15 K, m1 = 0.00989 | 0.0054653
313.15 K, m1 = 0.01185 | 0.0053887
318.15 K, m1 = 0.0001115 | 0.006838
318.15 K, m1 = 0.0002618 | 0.006751
318.15 K, m1 = 0.000487 | 0.006665
318.15 K, m1 = 0.0007457 | 0.0065904
318.15 K, m1 = 0.001234 | 0.0064856
318.15 K, m1 = 0.002038 | 0.0063572
318.15 K, m1 = 0.003 | 0.0062427
318.15 K, m1 = 0.003985 | 0.0061473
318.15 K, m1 = 0.005931 | 0.0060029
318.15 K, m1 = 0.007878 | 0.0058897
318.15 K, m1 = 0.009914 | 0.0057949
